Assay [1] has as its system reniform nematode Rotylenchulus reniformis. The experiment in a line: Greenhouse pot test, soil drench, reniform nematode population in soil. It counts as in vivo. The conditions noted are these: 1 Kg infested soil per pot, drench in 100 mls; urea alone 150 mgs/Kg soil; NBG 1-5 mls/kg soil without urea. As for the experimental part:
The effect of neutralized bioglycerin (NBG), either in the presence or absence of organic nitrogen, was tested on the growth of cotton plants and parasitic nematodes. Neutralized bioglycerin (NBG) was applied at rates of 0, 1, 2, 3, 4, and 5 mls/kg soil either with or without urea (150 mgs/Kg soil of the compound to achieve about 70 mgs N/Kg soil). Applications were performed by drenching the soil in aqueous solution so that the final application volume per pot was 100 mls (which is equivalent to an acre inch of irrigation). Each pot contained 1 Kg of soil infested with the reniform nematode Rotylenchulus reniformis and there were 7 replications (pots)/treatment. Thus, for example, for the 1 ml NBG application there were 14 pots, 7 of which received each water up to 100 mls containing 1 ml NBG; the other 7 pots received each 1 ml NBG+150 mgs urea mixed in a final volume of 100 mls. The carbon:nitrogen ratios (C/N) of the combined treatments ranged from about 5.6 for the 1 ml NBG treatment to 28 for the 5 mls NBG treatment.

In a further assay the test system is nematodes. The conditions noted are these: greenhouse and field experiments; cited from earlier work.
A further assay deals with fungi. The following applies: greenhouse and field experiments; cited from earlier work.

The structures appear in SMILES notation.

On to `NC(N)=O` [Urea, urea], for which, in assay [1], the “effect on reniform nematode numbers” value is recorded as “suppressed”.
In the case of `C=CC=O` [acrolein, 2-propenal], the nematocidal activity entry with nematodes was “nematocidal”. In the assay on fungi, the fungicidal activity entry is “fungicidal”.
